From patent publication US10851102B2, “Imidazole and triazole containing bicyclic compounds as JAK inhibitors” (THERAVANCE BIOPHARMA R&D IP, LLC, priority 2019, dated 2020)

Legend:
[1] = tested on: IL-2 stimulated pSTAT5 in Tall-1 T cells (JAK3); test: Cellular JAK3 potency assay: inhibition of IL-2 stimulated pSTAT5 in Tall-1 T cells; type: cell-based; settings: IL-2 300 ng/ml, pSTAT5 AlphaLisa, Tall-1 human T cell line; read-out: Tall-1 (pIC50) (converted)
Protocol: Assay 2: Cellular JAK3 Potency Assay: Inhibition of IL-2 Stimulated pSTAT5 in Tall-1 T Cells
The potency of test compounds for inhibition of interleukin-2 (IL-2) stimulated STATS phosphorylation was measured in the Tall-1 human T cell line (DSMZ) using AlphaLisa. Because IL-2 signals through JAK3, this assay provides a measure of JAK3 cellular potency.
(§1) Phosphorylated STATS was measured via the AlphaLISA SureFire Ultra pSTAT5 (Tyr694/699) kit (PerkinElmer).
Human T cells from the Tall-1 cell line were cultured in a 37° C., 5% CO2 humidified incubator in RPMI (Life Technologies) supplemented with 15% Heat Inactivated Fetal Bovine Serum (FBS, Life Technologies), 2 mM Glutamax (Life Technologies), 25 mM HEPES (Life Technologies) and 1× Pen/Strep (Life Technologies). Compounds were serially diluted in DMSO and dispensed acoustically to empty wells. Assay media (phenol red-free DMEM (Life Technologies) supplemented with 10% FBS (ATCC)) was dispensed (4 μL/well) and plates shaken at 900 rpm for 10 mins. Cells were seeded at 45,000 cells/well in assay media (4 μL/well), and incubated at 37° C., 5% CO2 for 1 hour, followed by the addition of IL-2 (R&D Systems; final concentration 300 ng/ml) in pre-warmed assay media ([…]) for 30 minutes. After cytokine stimulation, cells were lysed with 6 ul of 3× AlphaLisa Lysis Buffer (PerkinElmer) containing 1× PhosStop and Complete tablets (Roche). The lysate was shaken at 900 rpm for 10 minutes at room temperature (RT). Phosphorylated STATS was measured via the pSTAT5 AlphaLisa kit (PerkinElmer). Freshly prepared acceptor bead mixture was dispensed onto lysate (5 μL) under green filtered <100 lux light. Plates were shaken at 900 rpm for 2 mins, briefly spun down, and incubated for 2 hrs at RT in the dark. Donor beads were dispensed (5 μL) under green filtered <100 lux light. Plates were shaken at 900 rpm for 2 minutes, briefly spun down, and incubated overnight at RT in the dark. Luminescence was measured with excitation at 689 nm and emission at 570 nm using an EnVision plate reader (PerkinElmer) under green filtered <100 lux light.
To determine the inhibitory potency of test compounds in response to IL-2, the average emission intensity of beads bound to pSTAT5 was measured in a human T cell line. IC50 values were determined from analysis of the inhibition curves of signal intensity versus compound concentration. Data are expressed as pIC50 (negative decadic logarithm IC50) values (mean±standard deviation).

Caco-2 cell monolayers = test: Caco-2 permeation assay; type: in vitro ADME, human; settings: 5 μM, A to B, + Verapamil 25 μM, 120 minutes
Text: Assay 5: Caco-2 Permeation Assay

JAK2 = JAK2 (Homo sapiens (Human), UniProt O60674); test: Biochemical JAK and Tyk2 kinase assays (LanthaScreen): JAK2; settings: 1 h pre-incubation, ATP at Km, pIC50 converted to pKi by Cheng-Prusoff
Protocol: (§2) Assay 1: Biochemical JAK and Tyk2 Kinase Assays
(§3) A panel of four LanthaScreen JAK biochemical assays (JAK1, 2, 3 and Tyk2) were carried in a common kinase reaction buffer (50 mM HEPES, pH 7.5, 0.01% Brij-35, 10 mM MgCl2, and 1 mM EGTA). Recombinant GST-tagged JAK enzymes and a GFP-tagged STAT1 peptide substrate were obtained from Life Technologies.
(§4) Serially or discretely diluted compounds were pre-incubated with each of the four JAK enzymes and the substrate in white 384-well microplates (Corning) at ambient temperature for 1 h. ATP was subsequently added to initiate the kinase reactions in 10 μL total volume, with 1% DMSO. […] Kinase reactions were allowed to proceed for 1 hour at ambient temperature before a 10 μL preparation of EDTA (10 mM final concentration) and Tb-anti-pSTAT1 (pTyr701) antibody (Life Technologies, 2 nM final concentration) in TR-FRET dilution buffer (Life Technologies) was added. The plates were allowed to incubate at ambient temperature for 1 h before being read on the EnVision reader (Perkin Elmer). Emission ratio signals (520 nm/495 nm) were recorded and utilized to calculate the percent inhibition values based on DMSO and background controls.
(§5) For dose-response analysis, percent inhibition data were plotted vs. compound concentrations, and IC50 values were determined from a 4-parameter robust fit model with the Prism software (GraphPad Software). Results were expressed as pIC50 (negative logarithm of IC50) and subsequently converted to pKi (negative logarithm of dissociation constant, Ki) using the Cheng-Prusoff equation.

JAK1 = JAK1 (Homo sapiens (Human), UniProt P23458); test: Biochemical JAK and Tyk2 kinase assays (LanthaScreen): JAK1; settings: 1 h pre-incubation, ATP at Km; pIC50 converted to pKi by Cheng-Prusoff
Protocol: as §2, §3, §4, §5

[2] = tested on: IL-2 stimulated pSTAT5 in CD4+ T cells isolated from murine splenocytes (JAK3); test: Inhibition of IL-2 stimulated pSTAT5 in CD4+ T cells isolated from murine splenocytes; type: cell-based; settings: Mus musculus, IL-2 7 ng/ml, read-out: pIC50, inhibition of IL-2 stimulated pSTAT5 (converted)
Protocol: Assay 3: Inhibition of IL-2 Stimulated pSTAT5 in CD4+ T Cells Isolated from Murine Splenocytes
The potency of test compounds for inhibition of interleukin-2 (IL-2) stimulated STATS phosphorylation was measured in the CD4+ T cells isolated from murine splenocytes using AlphaLisa. Because IL-2 signals through JAK3, this assay provides a measure of JAK3 cellular potency in mouse.
as §1
CD4+ T cells were isolated from murine splenocytes via negative selection on a magnetic column (Miltnyi Biotec) and re-suspended in assay media (phenol red-free DMEM (Life Technologies) supplemented with 10% FBS (ATCC)). Cells were seeded at 50,000 cells/well in assay media (2 μL/well). Compounds were serially diluted in DMSO and diluted to 2× final concentration in assay media. Compound was added (4 μl/well) and the cells incubated at 37° C., 5% CO2 for 1 hour, followed by the addition of IL-2 (R&D Systems; final concentration 7 ng/ml) in pre-warmed assay media (2 μL) for 30 minutes. After cytokine stimulation, cells were lysed with 2 μl of 5× AlphaLisa Lysis Buffer (PerkinElmer). The lysate was shaken at 900 rpm for 10 minutes at room temperature (RT). Phosphorylated STATS was measured via the pSTAT5 AlphaLisa kit (PerkinElmer). Freshly prepared acceptor bead mixture was dispensed onto lysate (5 ul) under green filtered <100 lux light. Plates were shaken at 900 rpm for 2 mins, briefly spun down, and incubated for 2 hrs at RT in the dark. Donor beads were dispensed (5 μl) under green filtered <100 lux light. Plates were shaken at 900 rpm for 2 mins, briefly spun down, and incubated overnight at RT in the dark. Luminescence was measured with excitation at 689 nm and emission at 570 nm using an EnVision plate reader (PerkinElmer) under green filtered <100 lux light.
To determine the inhibitory potency of test compounds in response to IL-2, the average emission intensity of beads bound to pSTATS was measured in primary CD4+ T cells isolated from murine splenocytes. IC50 values were determined from analysis of the inhibition curves of signal intensity vs compound concentration. Data are expressed as pIC50 (negative decadic logarithm IC50) values (mean±standard deviation).

Tyk2 = Tyk2 (Homo sapiens (Human), UniProt P29597); test: Biochemical JAK and Tyk2 kinase assays (LanthaScreen): Tyk2; settings: 1 h pre-incubation, ATP at Km; pIC50 converted to pKi by Cheng-Prusoff
Protocol: as §2, §3, §4, §5

JAK3 = JAK3 (Homo sapiens (Human), UniProt P52333); test: Biochemical JAK and Tyk2 kinase assays (LanthaScreen): JAK3; settings: for Ki / JAK 3 (pKi): 1 h pre-incubation, ATP at Km, pIC50 converted to pKi by Cheng-Prusoff; for Ki: read-out: JAK 3 (pKi) (converted); for JAK3 (pKi)-JAK1 (pKi): difference of pKi values, selectivity JAK3 over JAK1
Protocol: as §2, §3, §4, §5

JAK3, sequence (P52333 whole entry): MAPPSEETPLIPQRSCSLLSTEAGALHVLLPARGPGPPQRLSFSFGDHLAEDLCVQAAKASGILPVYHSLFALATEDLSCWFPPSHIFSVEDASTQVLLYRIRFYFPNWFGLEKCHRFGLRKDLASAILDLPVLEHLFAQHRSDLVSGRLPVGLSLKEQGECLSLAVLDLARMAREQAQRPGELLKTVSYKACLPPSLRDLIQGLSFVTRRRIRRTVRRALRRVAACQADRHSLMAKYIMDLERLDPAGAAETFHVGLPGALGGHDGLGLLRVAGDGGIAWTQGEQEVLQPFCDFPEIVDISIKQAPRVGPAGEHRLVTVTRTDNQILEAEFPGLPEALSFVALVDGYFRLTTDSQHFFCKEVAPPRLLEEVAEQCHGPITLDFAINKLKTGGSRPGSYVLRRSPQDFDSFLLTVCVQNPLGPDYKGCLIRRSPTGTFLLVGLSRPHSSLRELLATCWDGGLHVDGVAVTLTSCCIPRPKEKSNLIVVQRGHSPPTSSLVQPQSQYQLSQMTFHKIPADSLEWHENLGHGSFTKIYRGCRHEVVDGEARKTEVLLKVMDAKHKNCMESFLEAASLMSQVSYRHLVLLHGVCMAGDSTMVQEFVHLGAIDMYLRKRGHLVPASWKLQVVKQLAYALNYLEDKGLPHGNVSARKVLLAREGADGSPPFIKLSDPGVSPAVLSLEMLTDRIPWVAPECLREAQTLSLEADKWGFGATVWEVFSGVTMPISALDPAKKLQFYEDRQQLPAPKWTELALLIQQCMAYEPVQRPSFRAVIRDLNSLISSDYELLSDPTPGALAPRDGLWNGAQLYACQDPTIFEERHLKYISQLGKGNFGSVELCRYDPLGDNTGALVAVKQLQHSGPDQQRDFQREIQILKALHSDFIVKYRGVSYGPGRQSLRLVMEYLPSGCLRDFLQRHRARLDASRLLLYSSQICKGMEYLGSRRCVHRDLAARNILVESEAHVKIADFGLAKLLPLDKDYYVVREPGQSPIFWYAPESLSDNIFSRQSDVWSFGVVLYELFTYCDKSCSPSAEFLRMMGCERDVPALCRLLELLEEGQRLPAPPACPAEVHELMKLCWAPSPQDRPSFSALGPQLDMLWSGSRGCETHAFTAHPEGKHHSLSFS
Tyk2, sequence (P29597 whole entry): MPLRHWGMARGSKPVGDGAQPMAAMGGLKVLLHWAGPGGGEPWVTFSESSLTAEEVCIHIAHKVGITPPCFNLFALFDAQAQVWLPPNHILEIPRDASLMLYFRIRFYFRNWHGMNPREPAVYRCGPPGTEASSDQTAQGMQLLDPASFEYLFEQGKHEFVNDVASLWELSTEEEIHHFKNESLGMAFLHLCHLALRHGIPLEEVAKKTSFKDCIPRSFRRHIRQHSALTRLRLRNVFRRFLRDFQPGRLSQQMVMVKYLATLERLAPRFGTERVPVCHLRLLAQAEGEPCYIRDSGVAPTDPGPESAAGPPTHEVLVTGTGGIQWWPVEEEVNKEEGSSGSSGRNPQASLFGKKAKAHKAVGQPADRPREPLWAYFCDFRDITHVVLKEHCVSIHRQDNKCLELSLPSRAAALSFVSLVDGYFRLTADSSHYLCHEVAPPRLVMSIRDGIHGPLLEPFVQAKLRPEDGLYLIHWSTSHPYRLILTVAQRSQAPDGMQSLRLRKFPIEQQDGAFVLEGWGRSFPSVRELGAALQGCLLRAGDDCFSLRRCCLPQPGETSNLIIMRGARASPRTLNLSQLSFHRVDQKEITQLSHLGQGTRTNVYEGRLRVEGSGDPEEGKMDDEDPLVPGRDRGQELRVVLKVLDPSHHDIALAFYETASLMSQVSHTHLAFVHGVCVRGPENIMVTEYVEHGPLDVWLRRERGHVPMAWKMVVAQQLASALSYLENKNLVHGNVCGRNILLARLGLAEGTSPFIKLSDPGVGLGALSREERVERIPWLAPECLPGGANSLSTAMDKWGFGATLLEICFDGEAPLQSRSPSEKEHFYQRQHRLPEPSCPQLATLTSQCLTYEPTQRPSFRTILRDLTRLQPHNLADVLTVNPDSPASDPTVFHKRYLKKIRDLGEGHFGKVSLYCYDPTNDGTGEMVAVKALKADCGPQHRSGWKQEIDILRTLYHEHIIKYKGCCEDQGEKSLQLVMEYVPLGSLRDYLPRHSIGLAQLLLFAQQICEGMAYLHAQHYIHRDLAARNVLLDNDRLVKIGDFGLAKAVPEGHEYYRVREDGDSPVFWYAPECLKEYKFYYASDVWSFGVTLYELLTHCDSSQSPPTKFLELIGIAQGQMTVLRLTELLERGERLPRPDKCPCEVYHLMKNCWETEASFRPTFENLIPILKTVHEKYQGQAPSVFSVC
JAK2, sequence (O60674 whole entry): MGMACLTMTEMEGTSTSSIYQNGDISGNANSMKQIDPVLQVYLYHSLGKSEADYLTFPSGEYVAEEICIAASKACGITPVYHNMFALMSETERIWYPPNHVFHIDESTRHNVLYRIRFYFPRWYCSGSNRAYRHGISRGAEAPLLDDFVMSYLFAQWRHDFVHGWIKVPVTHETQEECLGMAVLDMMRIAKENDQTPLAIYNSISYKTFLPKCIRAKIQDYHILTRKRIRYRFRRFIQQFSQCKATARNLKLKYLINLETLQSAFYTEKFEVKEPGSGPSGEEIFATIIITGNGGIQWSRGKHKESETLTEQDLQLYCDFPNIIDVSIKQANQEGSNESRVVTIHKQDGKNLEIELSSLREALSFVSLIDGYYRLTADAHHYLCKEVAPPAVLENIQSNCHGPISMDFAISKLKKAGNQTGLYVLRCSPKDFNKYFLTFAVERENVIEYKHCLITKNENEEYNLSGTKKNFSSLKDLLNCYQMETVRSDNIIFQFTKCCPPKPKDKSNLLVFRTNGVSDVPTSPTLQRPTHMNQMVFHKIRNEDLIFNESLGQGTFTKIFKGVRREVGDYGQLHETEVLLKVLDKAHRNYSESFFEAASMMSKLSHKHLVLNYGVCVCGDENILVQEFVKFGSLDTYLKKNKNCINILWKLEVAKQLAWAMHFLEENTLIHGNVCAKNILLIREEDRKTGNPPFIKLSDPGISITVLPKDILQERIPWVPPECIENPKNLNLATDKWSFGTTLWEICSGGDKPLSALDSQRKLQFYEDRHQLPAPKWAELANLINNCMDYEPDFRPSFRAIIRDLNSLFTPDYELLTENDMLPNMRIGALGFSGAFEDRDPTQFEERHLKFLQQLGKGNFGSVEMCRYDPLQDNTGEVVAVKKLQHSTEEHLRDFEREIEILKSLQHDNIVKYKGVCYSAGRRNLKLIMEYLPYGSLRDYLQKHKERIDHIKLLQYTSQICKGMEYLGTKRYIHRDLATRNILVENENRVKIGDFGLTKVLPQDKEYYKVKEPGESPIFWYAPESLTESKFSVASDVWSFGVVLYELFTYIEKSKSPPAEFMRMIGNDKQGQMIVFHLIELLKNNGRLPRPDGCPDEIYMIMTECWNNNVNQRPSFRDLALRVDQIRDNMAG
JAK1, sequence (P23458 whole entry): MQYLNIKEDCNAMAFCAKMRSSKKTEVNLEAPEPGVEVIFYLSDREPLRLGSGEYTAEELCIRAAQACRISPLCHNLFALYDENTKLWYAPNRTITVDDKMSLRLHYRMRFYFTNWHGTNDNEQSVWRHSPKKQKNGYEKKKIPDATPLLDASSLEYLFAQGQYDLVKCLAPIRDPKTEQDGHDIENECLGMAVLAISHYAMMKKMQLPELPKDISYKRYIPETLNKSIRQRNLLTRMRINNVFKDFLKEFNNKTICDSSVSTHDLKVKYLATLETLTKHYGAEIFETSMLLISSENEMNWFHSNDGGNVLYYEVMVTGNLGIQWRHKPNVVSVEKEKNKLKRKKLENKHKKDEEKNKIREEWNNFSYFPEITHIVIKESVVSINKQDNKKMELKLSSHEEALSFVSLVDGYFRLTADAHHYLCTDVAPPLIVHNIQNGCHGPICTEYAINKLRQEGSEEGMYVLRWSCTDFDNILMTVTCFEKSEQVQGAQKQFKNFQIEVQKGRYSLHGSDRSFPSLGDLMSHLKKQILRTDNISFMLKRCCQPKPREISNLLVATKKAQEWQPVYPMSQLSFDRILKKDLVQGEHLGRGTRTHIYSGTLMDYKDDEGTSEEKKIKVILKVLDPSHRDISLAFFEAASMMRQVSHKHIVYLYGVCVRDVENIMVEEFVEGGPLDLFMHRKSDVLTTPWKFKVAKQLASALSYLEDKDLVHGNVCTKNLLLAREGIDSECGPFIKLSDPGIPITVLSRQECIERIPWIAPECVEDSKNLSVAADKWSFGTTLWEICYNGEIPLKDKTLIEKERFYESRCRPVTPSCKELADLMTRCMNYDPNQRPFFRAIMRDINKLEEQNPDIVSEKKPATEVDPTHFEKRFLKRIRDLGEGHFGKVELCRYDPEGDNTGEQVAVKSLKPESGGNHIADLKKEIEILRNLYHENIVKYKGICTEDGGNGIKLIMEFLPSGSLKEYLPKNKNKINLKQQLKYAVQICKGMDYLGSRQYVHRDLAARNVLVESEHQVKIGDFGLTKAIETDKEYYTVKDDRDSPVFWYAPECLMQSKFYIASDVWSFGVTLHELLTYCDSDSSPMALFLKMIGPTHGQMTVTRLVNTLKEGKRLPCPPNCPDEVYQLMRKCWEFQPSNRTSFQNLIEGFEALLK

Structure (SMILES)	IC50 [1] [nM]	Caco Kp 10^−6 cm/sec (Caco-2 cell monolayers)	JAK 2 (pKi) (JAK2)	JAK 1 (pKi) (JAK1)	IC50 [2] [nM]	Tyk 2 (pKi) (Tyk2)	Ki (JAK3) [nM]	JAK3 (pKi)-JAK1 (pKi) (JAK3)	JAK 3 (pKi) (JAK3)	Ki (JAK2; read-out: JAK 2 (pKi) (converted)) [nM]
C=CC(=O)N1CC(COc2cc(-c3ccc(O)c(C)c3)cn3cncc23)C1 [Example 34]	31.6 to 200	B (B represents a value between 5×10^−6 and 10×10^−6 cm/sec)	E (E represents a pKi value of 7 or below (Ki of 100 nM or above))	E (E represents a pKi value of 7 or below (Ki of 100 nM or above))	< 1000	E (E represents a pKi value of 7 or below (Ki of 100 nM or above))	0.1 to 1	A (A represents a value of 3 or above)		
C=CC(=O)N1CC(COc2cc(-c3ccc(O)c(F)c3)cn3cncc23)C1 [Example 20]	31.6 to 200	A (A represents a value below 5×10^−6 cm/sec)	E (E represents a pKi value of 7 or below (Ki of 100 nM or above))	E (E represents a pKi value of 7 or below (Ki of 100 nM or above))	< 1000	E (E represents a pKi value of 7 or below (Ki of 100 nM or above))	0.1 to 1	A (A represents a value of 3 or above)		
C=CC(=O)N1CC(COc2cc(-c3cc(Cl)c(O)c(Cl)c3)cn3cncc23)C1 [Example 33]	31.6 to 200	A (A represents a value below 5×10^−6 cm/sec)		E (E represents a pKi value of 7 or below (Ki of 100 nM or above))				A (A represents a value of 3 or above)	A (A represents a pKi value≥10 (Ki≤0.1 nM))	
C=CC(=O)N1CC(COc2nc(-c3ccc(O)cc3)cn3cncc23)C1 [Example 6, 1-(3-(((6-(4-hydroxyphenyl)imidazo[1,5-a]pyrazin-8-yl)oxy)methyl)azetidin-1-yl)prop-2-en-1-one]	31.6 to 200	B (B represents a value between 5×10^−6 and 10×10^−6 cm/sec)	E (E represents a pKi value of 7 or below (Ki of 100 nM or above))	E (E represents a pKi value of 7 or below (Ki of 100 nM or above))		E (E represents a pKi value of 7 or below (Ki of 100 nM or above))	0.1 to 1	A (A represents a value of 3 or above)		
C=CC(=O)N1CCC(Oc2cc(-c3ccc(O)cc3)cn3cncc23)C(F)(F)C1 (stereo not shown) [Example 14, 1-(3,3-difluoro-4-((6-(4-hydroxyphenyl)imidazo[1,5-a]pyridin-8-yl)oxy)piperidin-1-yl)prop-2-en-1-one]	≤ 31.6	B (B represents a value between 5×10^−6 and 10×10^−6 cm/sec)		E (E represents a pKi value of 7 or below (Ki of 100 nM or above))		E (E represents a pKi value of 7 or below (Ki of 100 nM or above))		A (A represents a value of 3 or above)	A (A represents a pKi value≥10 (Ki≤0.1 nM))	10 to 100
C=CC(=O)N1CC(COc2cc(-c3ccc(O)cc3CC)cn3cncc23)C1 [Example 21]	31.6 to 200	B (B represents a value between 5×10^−6 and 10×10^−6 cm/sec)	E (E represents a pKi value of 7 or below (Ki of 100 nM or above))	E (E represents a pKi value of 7 or below (Ki of 100 nM or above))		E (E represents a pKi value of 7 or below (Ki of 100 nM or above))	0.1 to 1	A (A represents a value of 3 or above)		
C=CC(=O)N1CCC(COc2cc(-c3ccc(O)cc3)cn3cncc23)CC1 [Example 2, 1-(4-(((6-(4-hydroxyphenyl)imidazo[1,5-a]pyridin-8-yl)oxy)methyl)piperidin-1-yl)prop-2-en-1-one]	200 to 1000	C (C represents a value between 10×10^−6 and 25×10^−6 cm/sec)	E (E represents a pKi value of 7 or below (Ki of 100 nM or above))	E (E represents a pKi value of 7 or below (Ki of 100 nM or above))		E (E represents a pKi value of 7 or below (Ki of 100 nM or above))	0.1 to 1	A (A represents a value of 3 or above)		
